Reference: patent publication US20260184675A1, “CHIRAL ISOMERIC SULFITE COMPOUND AND APPLICATION THEREOF” (Chengdu Hanova BioSciences Co., Ltd, priority 2024, published 2026)

What was measured:
[1] = system: eggs of Panonychus citri; experiment: Effect on hatching of eggs of Panonychus citri, leaf disc method; type: in vivo; conditions: 1 ppm; for Hatching rate (%), Replicate 1 / Hatching rate (%), Replicate 2 / Hatching rate (%), Replicate 3 / Number of hatched larvae 5 days after insecticide delivery, Replicate 1 / Number of hatched larvae 5 days after insecticide delivery, Replicate 2 / Number of hatched larvae 5 days after insecticide delivery, Replicate 3: Panonychus citri eggs; for Hatching rate (%), Replicate 1 / Hatching rate (%), Replicate 2 / Hatching rate (%), Replicate 3: 5 days after delivery; for Number of hatched larvae 5 days after insecticide delivery, Replicate 1 / Number of hatched larvae 5 days after insecticide delivery, Replicate 2 / Number of hatched larvae 5 days after insecticide delivery, Replicate 3: leaf disc
Procedure: • (1) Preparation of leaf discs containing eggs: 20 female adult mites of Tetranychus cinnabarinus were transferred onto leaf discs of Vicia faba with a diameter of 2.0 cm (with wetted filter paper at the bottom), then covered it with a lidded culture dish and cultivated under moisturizing conditions, the adult mites were removed within 36 hours and microscopic examination and counting were performed on leaf discs containing eggs. • (2) Investigation of egg population base: Before pesticide soaking, a microscopic examination was conducted on the egg basic number of each leaf disc, with 2 replicates set for each treatment. • (3) Pesticide soaking treatment: The leaf butterflies loaded with mite eggs were soaked in clear water and sulfite compounds for 10 seconds, respectively, then taken out and cultivated under moisturizing conditions. Each treatment should be repeated for no less than 3 times. • (4) Cultivation and observation: The […] were cultivated under normal conditions. Five days after insecticide delivery, the hatching status of mite eggs was investigated. • Note: The temperature and humidity conditions of the constant temperature and humidity incubator after the treatment should be controlled so as to avoid excessive temperature differences, which may cause generation and dripping of condensate water in the culture dish, resulting in abnormal death of eggs due to soaking in water; it is also necessary to ensure sufficient strong ambient light, without directing irradiating the leaves. • (5) Survey of Results: The experimental materials of each treatment group were regularly hydrated and moisturized, and the hatching of eggs was observed. On the 7th day after insecticide delivery, the number of hatched eggs for each treatment was recorded, and the survey of results was recorded in the original notebook. According to the experimental requirements and characteristics of agents, the survey time can be shortened or extended.
• 1) Surveying and recording the number of hatched eggs for each treatment. • 2) Photographing and recording whether there was any pesticide damage to the leaf discs of Vicia faba. • 3) Recording the developmental status of experimental mite eggs, behavior status of nymph mites, including abnormal phenomena such as delayed or stopped development of mite eggs, difficulty in breaking hull for nymph mites, or painful struggles after hatching, etc. • (6) Calculation method: Based on the survey data, the prevention and control effect of each treatment was calculated according to the following formula, and the calculation results were kept to two decimal places.
This test adopted the method in Test Example 1 of technical section, mainly used leaf disc method to explore the effect on hatching of eggs of Panonychus citri by compounds 1-(S,S), 1-(S,R), 1-(R,R), 1-(R,S), 1′-(S,S), 1′-(S,R), 1′-(R,R), 1′-(R,S), compound 1, compound 1′, S-10, R-10, S-10′, R-10′, compound 10, compound 10′, compound 19-(S,S), 19-(S,R), 19-(R,R), 19-(R,S), 19′-(S,S), 19′-(S,R), 19′-(R,R), 19′-(R,S), compound 19, and compound 19′. The concentration of all compounds was 1 ppm.

[2] = system: eggs of Tetranychus cinnabarinus; experiment: Control efficacy on eggs of Tetranychus cinnabarinus of compounds compounded with ginger rhizome / Kaempferia galanga L rhizome mixture (Bliss joint action); type: in vivo; conditions: for joint effect on controlling of eggs of Tetranychus cinnabarinus (in words): compounded with a mixture of ginger rhizome and Kaempferia galanga L rhizome (7:3); for Control efficacy for eggs of Tetranychus cinnabarinus on day 5 (%): single agent
Procedure: The ginger rhizome extract and volatile oil of Kaempferia galanga L rhizome were used to prepare a mixture of ginger rhizome and Kaempferia galanga L rhizome at a compounding ratio of 7:3, which was then compounded with compound 1, compound 10 and compound 19, and a leaf-disc method was used to evaluate the control efficacy on eggs of Tetranychus cinnabarinus based on the Experimental method in Example 1.
The ginger rhizome extract was prepared by extracting the ginger rhizome using a mixed solvent of ethyl acetate and ethanol at a ratio of 1:4.
According to the concept of independent joint action proposed by Bliss, the theoretical mortality rate P when the pesticides and acaricides are used in mixture can be calculated using the following equation: […]
Pm is the mortality rate (%) of the target when the first active component is used at a concentration of m; and Pn is the mortality rate (%) of the target when the second active component is used at a concentration of n.

## CCC(COc1ccc(Cl)cc1Cl)OS(=O)OCCF (stereo not drawn) [Compound 19]
[1]
  inhibitory effect on the hatching of eggs of Panonychus citri (in words): good inhibitory effects
  Hatching rate (%), Replicate 1: 0.00%
  Hatching rate (%), Replicate 2: 0.00%
  Hatching rate (%), Replicate 3: 0.00%
  Number of hatched larvae 5 days after insecticide delivery, Replicate 1: 0
  Number of hatched larvae 5 days after insecticide delivery, Replicate 2: 0
  Number of hatched larvae 5 days after insecticide delivery, Replicate 3: 0
[2]
  joint effect on controlling of eggs of Tetranychus cinnabarinus (in words): synergistic effect
[2]; 0.1 mg/L
  Control efficacy for eggs of Tetranychus cinnabarinus on day 5 (%): 20.57%
[2]; 0.2 mg/L
  Control efficacy for eggs of Tetranychus cinnabarinus on day 5 (%): 36.14%
[2]; 0.25 mg/L
  Control efficacy for eggs of Tetranychus cinnabarinus on day 5 (%): 48.73%

## CC(COS(=O)OCCF)Oc1ccc(Cl)cc1Cl (stereo not drawn) [Compound 1]
[1]
  inhibitory effect on the hatching of eggs of Panonychus citri (in words): good inhibitory effects
  Hatching rate (%), Replicate 1: 0.00%
  Hatching rate (%), Replicate 2: 0.00%
  Hatching rate (%), Replicate 3: 0.00%
  Number of hatched larvae 5 days after insecticide delivery, Replicate 1: 0
  Number of hatched larvae 5 days after insecticide delivery, Replicate 2: 0
  Number of hatched larvae 5 days after insecticide delivery, Replicate 3: 0
[2]
  joint effect on controlling of eggs of Tetranychus cinnabarinus (in words): synergistic effect
[2]; 0.1 mg/L
  Control efficacy for eggs of Tetranychus cinnabarinus on day 5 (%): 17.12%
[2]; 0.2 mg/L
  Control efficacy for eggs of Tetranychus cinnabarinus on day 5 (%): 33.58%
[2]; 0.3 mg/L
  Control efficacy for eggs of Tetranychus cinnabarinus on day 5 (%): 52.19%

## CC(C)(COc1ccc(Cl)cc1Cl)OS(=O)OCCF (stereo not drawn) [Compound 10]
[1]
  inhibitory effect on the hatching of eggs of Panonychus citri (in words): good inhibitory effects
  Hatching rate (%), Replicate 1: 1.01%
  Hatching rate (%), Replicate 2: 0.00%
  Hatching rate (%), Replicate 3: 0.00%
  Number of hatched larvae 5 days after insecticide delivery, Replicate 1: 1
  Number of hatched larvae 5 days after insecticide delivery, Replicate 2: 0
  Number of hatched larvae 5 days after insecticide delivery, Replicate 3: 0
[2]
  joint effect on controlling of eggs of Tetranychus cinnabarinus (in words): synergistic effect
[2]; 0.1 mg/L
  Control efficacy for eggs of Tetranychus cinnabarinus on day 5 (%): 11.45%
[2]; 0.2 mg/L
  Control efficacy for eggs of Tetranychus cinnabarinus on day 5 (%): 20.79%
[2]; 0.5 mg/L
  Control efficacy for eggs of Tetranychus cinnabarinus on day 5 (%): 68.12%
